How the values were obtained:
VCaP cells = assay: Cell proliferation assay (CellTiter-Glo, 5-day exposure), VCaP; format: cell-based; conditions: 4000 cells/well, Th-227 labelled at 375 kBq/nmol, mean of 1 to 6 experiments
In short: (§1)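 Cells were plated (4000/well VCaP, 1000/well for the other lines), left overnight at 37 °C with 5% CO2, then exposed for 5 days to Thorium-227-labelled PSMA ligands. Viability before and after exposure was measured by CellTiter-Glo.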

C4-2 cells = assay: Cell proliferation assay (CellTiter-Glo, 5-day exposure), C4-2; format: cell-based; conditions: C4-2, 1000 cells/well, Th-227 labelled at 375 kBq/nmol, mean of 1 to 6 experiments
In short: as §1

LNCaP cells = assay: Cell proliferation assay (CellTiter-Glo, 5-day exposure), LNCaP; format: cell-based, human; conditions: LNCaP, 1000 cells/well; Th-227 labelled at 375 kBq/nmol; 5-day exposure; mean of 1 to 6 experiments
Procedure: Inhibition of cell proliferation of Thorium-227 labeled PMSA SMOL ligands was tested different prostate cancer cell lines, namely 22Rv1, VCaP, C4-2 (all from ATCC, Manassas, Va., USA) and LNCaP (DMSZ, Braunschweig). Cells were seeded using the following conditions in 384 well plates (Corning) in 30 μl of growth media at 4000 cells/well for VCaP cells and 1000 cells/well for 22Rv1, C4-2 and LNCaP cells.
Cells were cultivated an incubator at 37° C. and 5% C02 over night. On the following days cells were treated in triplicates with serial dilutions of PSMA-SMOLs labeled with Th-227 at a specific activity of 375 kBq/nmol (RCP>70% as assessed by iTLC analysis; compounds where RCP was between 50-70% in individual experiments are marked with an * in the table) using a D300e Digital Dispenser (Tecan). In sister plates cell viability at treatment start (d=0) was determined using CellTiter-Glo® assay (CTG, Promega, Madison, Wis., USA), by adding 30 μl per well CTG solution, incubation for 10 min and reading of Luminescence in a PheraStarFSX instrument (BMG Labtech). After a 5-day exposure in the presenced of test compounds, cell viability of treated or untreated control cells was determined again using CellTiter-Glo® assay (Promega, Madison, Wis., USA). […] The DRC software is a Biobook Spreadsheet that was developed by Bayer AG and Bayer Business Services on the IDBS E-Workbook Suite platform (IDBS: ID Business Solutions Ltd., Guildford, UK).

For `O=C(O)CC[C@H](NC(=O)N[C@@H](CCCCNC(=O)[C@@H](Cc1ccc2c(c1)CCCO2)NC(=O)[C@H]1CC[C@H](CNC(=O)C[N+]23CCN4CCN5CC[N+]6(CC2)CC(=O)[O][227Th-2]36([O]C(=O)C4)[O]C(=O)C5)CC1)C(=O)O)C(=O)O` [Example 38-B-227Th, {N^6-[3-(3,4-dihydro-2H-1-benzopyran-6-yl)-N-{(1r,4S)-4-[(2-{4,7,10-tris[(carboxy-kappaO)methyl]-1,4,7,10-tetraazacyclododecan-1-yl-kappa^2N^1,N^4}acetamido)methyl]cyclohexane-1-carbonyl}-D-alanyl]-N^2-{[(1S)-1,3-dicarboxypropyl]carbamoyl}-L-lysinato(3−)}(^227Th)Thorium], the “Proliferation assay on cancer cell lines by TTCs Default Pivot #3 IC50 [kBq/mL] VCap 4000cells 375kBq/nmol (mean)” value (VCaP cells) was 0.44 kBq/mL, the “Proliferation assay on cancer cell lines by TTCs Default Pivot #3 IC50 [kBq/mL] C4-2 1000cells 375kBq/nmol (mean)” value (C4-2 cells) was 0.91 kBq/mL and the “Proliferation assay on cancer cell lines by TTCs Default Pivot #3 IC50 [kBq/mL] LnCap 1000cells 375kBq/nmol (mean)” value (LNCaP cells) was 0.10 kBq/mL.

For `Cc1cc2c(c(=O)n1CC(=O)O)[O][227Th]13[O]c4c(cc(C)n(CC(=O)O)c4=O)C(=O)NCCN(CCCN(CCNC(=O)c4cc(C)n(CC(=O)O)c(=O)c4[O]1)CCNC(=O)c1cc(C)n(CC(=O)NCc4ccc(C(=O)N[C@@H](Cc5ccc6ccccc6c5)C(=O)NCCCC[C@H](NC(=O)N[C@H](CCC(=O)O)C(=O)O)C(=O)O)nc4)c(=O)c1[O]3)CCNC2=O` [Example 25-C-D-227Th], the “Proliferation assay on cancer cell lines by TTCs Default Pivot #3 IC50 [kBq/mL] VCap 4000cells 375kBq/nmol (mean)” value (VCaP cells) was 2.26 kBq/mL, the “Proliferation assay on cancer cell lines by TTCs Default Pivot #3 IC50 [kBq/mL] C4-2 1000cells 375kBq/nmol (mean)” value (C4-2 cells) was 2.95 kBq/mL and the “Proliferation assay on cancer cell lines by TTCs Default Pivot #3 IC50 [kBq/mL] LnCap 1000cells 375kBq/nmol (mean)” value (LNCaP cells) was 0.49 kBq/mL.
